In PubChem BioAssay AID2060335 (Molecular Pharmacology Branch, DTP, NCI, 2025):
“And” between values parts separate entries of the source, which are not always exact repeats. Identical values can stand only once.

System: DU-145 multicell spheroids with HUVEC/MSC, viability
Test: Anticancer human tumor DU-145 cell line growth inhibition [IpAb];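 also: spheroids exposed to agents for seven days before measurement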;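 as to viability, T/C: percent of DMSO vehicle control viability so 100% = untreated level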
Conditions: for viability, T/C: stronger effect = lower value
Outline: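 Multi-cell spheroids of 60% tumour cells, 25% HUVEC and 15% MSC in ultra-low-attachment U-bottom wells, treated with agents combined with ipatasertib or abemaciclib. Half-log ranges top out near clinical Cmax, or 10 microM when Cmax is unknown.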

[1] = curve of first compound, second compound 0.01 µM
[2] = curve of first compound, second compound 0.0316 µM
[3] = curve of first compound, second compound 0.1 µM
[4] = curve of first compound, second compound 0.316 µM
[5] = curve of first compound, second compound 1 µM
[6] = second compound 0.01 µM, first compound 0.0316 µM
[7] = second compound 0.01 µM, first compound 0.1 µM
[8] = second compound 0.0316 µM, first compound 0.0316 µM
[9] = second compound 0.0316 µM, first compound 0.1 µM
[10] = second compound 0.1 µM, first compound 0.0316 µM
[11] = second compound 0.1 µM, first compound 0.1 µM
[12] = second compound 0.316 µM, first compound 0.0316 µM
[13] = second compound 0.316 µM, first compound 0.1 µM
[14] = second compound 1 µM, first compound 0.0316 µM
[15] = second compound 1 µM, first compound 0.1 µM

SMILES: CC1(C)CCC(CN2CCN(c3ccc(C(=O)NS(=O)(=O)c4ccc(NCC5CCOCC5)c([N+](=O)[O-])c4)c(Oc4cnc5[nH]ccc5c4)c3)CC2)=C(c2ccc(Cl)cc2)C1 + CCN1CCN(Cc2ccc(Nc3ncc(F)c(-c4cc(F)c5nc(C)n(C(C)C)c5c4)n3)nc2)CC1
- IC50 [1]: 4.89 µM
- IC50 [2]: 4.11 µM
- IC50 [3]: 4.19 µM
- IC50 [4]: 3.64 µM
- IC50 [5]: 3.43 µM
- viability, T/C [6]: 108%
- viability, T/C [7]: 104%
- viability, T/C (second compound 0.01 µM, first compound 0.316 µM): 103%
- viability, T/C (second compound 0.01 µM, first compound 1 µM): 99.8%
- viability, T/C (second compound 0.01 µM, first compound 3.16 µM): 70.2%
- viability, T/C (second compound 0.01 µM, first compound 10 µM): 16.7%
- viability, T/C [8]: 95.8%
- viability, T/C [9]: 101%
- viability, T/C (second compound 0.0316 µM, first compound 0.316 µM): 97%
- viability, T/C (second compound 0.0316 µM, first compound 1 µM): 90.4%
- viability, T/C (second compound 0.0316 µM, first compound 3.16 µM): 61.5%
- viability, T/C (second compound 0.0316 µM, first compound 10 µM): 11.1%
- viability, T/C [10]: 94.8%
- viability, T/C [11]: 102%
- viability, T/C (second compound 0.1 µM, first compound 0.316 µM): 92%
- viability, T/C (second compound 0.1 µM, first compound 1 µM): 78.9%
- viability, T/C (second compound 0.1 µM, first compound 3.16 µM): 64.3%
- viability, T/C (second compound 0.1 µM, first compound 10 µM): 13.5%
- viability, T/C [12]: 84%
- viability, T/C [13]: 88.2%
- viability, T/C (second compound 0.316 µM, first compound 0.316 µM): 80.3%
- viability, T/C (second compound 0.316 µM, first compound 1 µM): 72.5%
- viability, T/C (second compound 0.316 µM, first compound 3.16 µM): 56.7%
- viability, T/C (second compound 0.316 µM, first compound 10 µM): 10.8%
- viability, T/C [14]: 71.3%
- viability, T/C [15]: 72.8%
- viability, T/C (second compound 1 µM, first compound 0.316 µM): 68.3%
- viability, T/C (second compound 1 µM, first compound 1 µM): 69.5%
- viability, T/C (second compound 1 µM, first compound 3.16 µM): 52.2%
- viability, T/C (second compound 1 µM, first compound 10 µM): 12.3%

SMILES: Cn1ncnc1[C@H]1c2n[nH]c(=O)c3cc(F)cc(c23)N[C@@H]1c1ccc(F)cc1 + CCN1CCN(Cc2ccc(Nc3ncc(F)c(-c4cc(F)c5nc(C)n(C(C)C)c5c4)n3)nc2)CC1
- IC50 [1]: > 0.1 µM
- IC50 [2]: > 0.1 µM
- IC50 [3]: > 0.1 µM
- IC50 [4]: > 0.1 µM
- IC50 [5]: > 0.1 µM
- viability, T/C (second compound 0.01 µM, first compound 0.000316 µM): 99.7%
- viability, T/C (second compound 0.01 µM, first compound 0.001 µM): 102%
- viability, T/C (second compound 0.01 µM, first compound 0.00316 µM): 96.8%
- viability, T/C (second compound 0.01 µM, first compound 0.01 µM): 89%
- viability, T/C [6]: 88.5%
- viability, T/C [7]: 81.6%
- viability, T/C (second compound 0.0316 µM, first compound 0.000316 µM): 94.2%
- viability, T/C (second compound 0.0316 µM, first compound 0.001 µM): 95.7%
- viability, T/C (second compound 0.0316 µM, first compound 0.00316 µM): 84.5%
- viability, T/C (second compound 0.0316 µM, first compound 0.01 µM): 79.1%
- viability, T/C [8]: 84.1%
- viability, T/C [9]: 77.4%
- viability, T/C (second compound 0.1 µM, first compound 0.000316 µM): 90%
- viability, T/C (second compound 0.1 µM, first compound 0.001 µM): 84.4%
- viability, T/C (second compound 0.1 µM, first compound 0.00316 µM): 78.3%
- viability, T/C (second compound 0.1 µM, first compound 0.01 µM): 73.4%
- viability, T/C [10]: 82.1%
- viability, T/C [11]: 76%
- viability, T/C (second compound 0.316 µM, first compound 0.000316 µM): 81.9%
- viability, T/C (second compound 0.316 µM, first compound 0.001 µM): 78%
- viability, T/C (second compound 0.316 µM, first compound 0.00316 µM): 75.3%
- viability, T/C (second compound 0.316 µM, first compound 0.01 µM): 73.3%
- viability, T/C [12]: 66.7%
- viability, T/C [13]: 64.7%
- viability, T/C (second compound 1 µM, first compound 0.000316 µM): 67.9%
- viability, T/C (second compound 1 µM, first compound 0.001 µM): 75.3%
- viability, T/C (second compound 1 µM, first compound 0.00316 µM): 63.3%
- viability, T/C (second compound 1 µM, first compound 0.01 µM): 65.8%
- viability, T/C [14]: 63.7%
- viability, T/C [15]: 61.2%

SMILES: CC(=O)c1c(C)c2cnc(Nc3ccc(N4CCNCC4)cn3)nc2n(C2CCCC2)c1=O + CCN1CCN(Cc2ccc(Nc3ncc(F)c(-c4cc(F)c5nc(C)n(C(C)C)c5c4)n3)nc2)CC1
- IC50 [1]: > 0.3 µM
- IC50 [2]: > 0.3 µM
- IC50 [3]: > 0.3 µM
- IC50 [4]: > 0.3 µM
- IC50 [5]: > 0.3 µM
- viability, T/C (second compound 0.01 µM, first compound 0.000949 µM): 88.5%
- viability, T/C (second compound 0.01 µM, first compound 0.003 µM): 90.5%
- viability, T/C (second compound 0.01 µM, first compound 0.00949 µM): 87.2%
- viability, T/C (second compound 0.01 µM, first compound 0.03 µM): 90.4%
- viability, T/C (second compound 0.01 µM, first compound 0.0949 µM): 90.2%
- viability, T/C (second compound 0.01 µM, first compound 0.3 µM): 84.8%
- viability, T/C (second compound 0.0316 µM, first compound 0.000949 µM): 93.7%
- viability, T/C (second compound 0.0316 µM, first compound 0.003 µM): 84.9%
- viability, T/C (second compound 0.0316 µM, first compound 0.00949 µM): 90%
- viability, T/C (second compound 0.0316 µM, first compound 0.03 µM): 85.4%
- viability, T/C (second compound 0.0316 µM, first compound 0.0949 µM): 83.4%
- viability, T/C (second compound 0.0316 µM, first compound 0.3 µM): 80.9%
- viability, T/C (second compound 0.1 µM, first compound 0.000949 µM): 78.6%
- viability, T/C (second compound 0.1 µM, first compound 0.003 µM): 76.9%
- viability, T/C (second compound 0.1 µM, first compound 0.00949 µM): 77.9%
- viability, T/C (second compound 0.1 µM, first compound 0.03 µM): 76.9%
- viability, T/C (second compound 0.1 µM, first compound 0.0949 µM): 73.4%
- viability, T/C (second compound 0.1 µM, first compound 0.3 µM): 76.7%
- viability, T/C (second compound 0.316 µM, first compound 0.000949 µM): 74.5%
- viability, T/C (second compound 0.316 µM, first compound 0.003 µM): 72%
- viability, T/C (second compound 0.316 µM, first compound 0.00949 µM): 75.5%
- viability, T/C (second compound 0.316 µM, first compound 0.03 µM): 75%
- viability, T/C (second compound 0.316 µM, first compound 0.0949 µM): 71.3%
- viability, T/C (second compound 0.316 µM, first compound 0.3 µM): 66.6%
- viability, T/C (second compound 1 µM, first compound 0.000949 µM): 58.9%
- viability, T/C (second compound 1 µM, first compound 0.003 µM): 61.2%
- viability, T/C (second compound 1 µM, first compound 0.00949 µM): 61.6%
- viability, T/C (second compound 1 µM, first compound 0.03 µM): 60.4%
- viability, T/C (second compound 1 µM, first compound 0.0949 µM): 58%
- viability, T/C (second compound 1 µM, first compound 0.3 µM): 60.2%

SMILES: C=CC(=O)N1CCN(c2nc(=O)n(-c3c(C)ccnc3C(C)C)c3nc(-c4c(O)cccc4F)c(F)cc23)C(C)C1 (configuration not stated)
- viability, T/C (compound 0.0316 µM): 104% and 107%
- viability, T/C (compound 0.1 µM): 109% and 108%
- viability, T/C (compound 0.316 µM): 107% and 109%
- viability, T/C (compound 1 µM): 112% and 113%
- viability, T/C (compound 3.16 µM): 90.7% and 103%
- viability, T/C (compound 10 µM): 44.1% and 48.9%
- IC50 (curve of compound): 8.66 µM and 9.82 µM
